Experimental data reported in US6573060B1, “Methods and compositions for targeting DNA metabolic processes using aminoglycoside derivatives” (University of Virginia Patent Foundation, priority 1997, dated 2003).
“Also recorded” adds a separate entry of the source.

Columns and labels:
Leishmania chagasi = Leishmania chagasi culture growth; assay type: cell-based; conditions: FIGS. 12A-B
Procedure: Leishmania chagasi cells were grown in HO-MEM medium to a cell density of 1×10^6 cells/ml. 50 μl of drug were mixed with 50 μl of media in the first well of a 96 well micro titer plate. Serial, two-fold dilutions were then made by taking 50 μl of the solution in the first well and diluting it into the second well and this process was repeated through the 12 wells of an entire row of the 96 well plate. This gives a 2-fold difference in the concentration of the drug between the wells in that row. This procedure was repeated for all the inhibitors. 50 μl of Leishmania chagasi, at a cell density of 1×10^6 cells/ml, was then added to the wells. The micro titer plate was incubated at 30° C. under anaerobic conditions. Cells were counted under light microscope every 24 hours after addition of drugs.

[1] = tested on: Human PC3 (prostate cancer) cells; experiment: Human PC3 subcutaneous tumors in nude, athymic mice, intratumoral injection; assay type: in vivo
Procedure: Human PC3 (prostate cancer) cells were implanted subcutaneously in nude, athymic mice. Following tumor development to a size of approximately 200 cubic millimeters, tumors were injected directly with 50 μl of 1.3 mM phosphokanamycin every Monday, Wednesday, and Friday for two weeks.
CRL: CD-lnu/nu Br mice (nude, athymic) were obtained from Charles River Animal Resources Facility. Human PC3 cells were grown in RPMI 1640 media containing 10% serum, 200 μl of this cell culture was diluted 1:1 with Matrigel (Collaborative Biomedical Products) such that the total number of cells after dilution were 2×10^6. The cells were then injected on the underside of the flank and the development of subcutaneous tumor size was monitored by measurement with Vernier calipers.
Therapy with the drugs was started when the tumor size reached 200 mm^3. The drugs were solubilized in PBS (0.35 g NaH2PO4, 1.06 g Na2HPO and 8.5 g in a total volume of 1 L, pH 7.2), pH was adjusted to 7.2 using phosphoric acid and filter sterilized before injection. 50 μl of the drug (1.3 mM phosphokanamycin) was administered by direct injection into the tumor every Monday, Wednesday, and Friday for two weeks. The tumor size was monitored by measurement with Vernier calipers. The mice were euthanized when the tumor size exceeded 1000 mm^3 or when the weight of the mice decreased by more than 15% of their starting weight. The tumor size was calculated using the following formula:
volume=[length×(width)^2]/2

DNA-dependent ATPase A = target: T1, DNA-dependent ATPase A (Bos taurus, UniProt Q9TTA5); experiment: Inhibition of ATP hydrolysis by DNA-dependent ATPase A (overexpressed 82 kDa ADAAD); assay type: biochemical, bovine; conditions: for inhibition of DNA-dependent ATPase A activity (in words): in vitro
T1 sequence (Q9TTA5 222-940): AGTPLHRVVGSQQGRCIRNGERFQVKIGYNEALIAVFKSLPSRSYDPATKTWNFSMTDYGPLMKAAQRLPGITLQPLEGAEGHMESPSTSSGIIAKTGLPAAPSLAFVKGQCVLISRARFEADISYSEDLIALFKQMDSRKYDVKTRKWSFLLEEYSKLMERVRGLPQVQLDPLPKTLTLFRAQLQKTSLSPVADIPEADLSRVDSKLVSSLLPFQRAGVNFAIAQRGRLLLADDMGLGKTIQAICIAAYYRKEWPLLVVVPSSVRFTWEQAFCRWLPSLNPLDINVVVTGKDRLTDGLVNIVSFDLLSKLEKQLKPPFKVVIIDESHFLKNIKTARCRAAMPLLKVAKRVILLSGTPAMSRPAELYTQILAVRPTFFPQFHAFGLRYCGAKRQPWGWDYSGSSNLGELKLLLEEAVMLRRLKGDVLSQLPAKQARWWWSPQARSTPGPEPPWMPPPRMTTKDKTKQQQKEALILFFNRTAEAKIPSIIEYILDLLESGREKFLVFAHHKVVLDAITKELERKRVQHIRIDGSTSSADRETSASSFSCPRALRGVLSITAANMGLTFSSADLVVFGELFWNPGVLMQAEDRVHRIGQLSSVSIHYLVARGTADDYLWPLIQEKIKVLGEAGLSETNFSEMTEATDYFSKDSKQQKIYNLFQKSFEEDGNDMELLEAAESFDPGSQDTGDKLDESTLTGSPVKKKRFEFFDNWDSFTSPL
Procedure: Enzyme (0.2 units (one unit is the amount of enzyme required to hydrolyze 1 μmole of adenosine triphosphate per min)) was mixed with 50 mM Tris-SO4, pH 7.5, 1 mM MgCl2, 5 mM β-mercaptoethanol, 0.5 mg/mL bovine serum albumin, 2 mM phosphoenol pyruvate, 0.03 mg/mL pyruvate kinase, 10 nM of stem-loop DNA, and 2 mM adenosine triphosphate in a total volume of 100 μL. The reaction was typically incubated at 37° C. for 10-60 minutes. At the end of the designated time, 225 μL of 10% sodium dodecyl sulfate and 350 μL of water were added to stop the reaction. Color development requires the addition of two reagents: 180 μL of reagent A (prepared by mixing equal volumes of 60 to 70% perchloric acid and 5% ammonium molybdate in water) and 45 μL of reagent B (0.2 g 1:2:4 aminonaphthol sulfonic acid, 12.0 g sodium metabisulfite, and 2.4 g sodium sulfite dissolved in 100 mL of water) was added. The reaction was incubated at room temperature for 10 minutes and the absorbance was read at 720 nm. The color development was time-dependent and therefore samples must be read at exactly 10 minutes.
Enzyme (0.2 units (one unit is the amount of enzyme required to hydrolyze 1 μmole of adenosine triphosphate per min)) was mixed with 25 mM Tris-acetate pH 7.5, 6 mM Mg(acetate)2, 60 mM KCl, 5 mM β-mercaptoethanol, 3 mM phosphoenol pyruvate, 10 units/mL pyruvate kinase, 10 units/mL lactate dehydrogenase 10 nM DNA, 2 mM adenosine triphosphate, and 0.1 mg/mL NADH in a final volume of 1 mL. The progress of the reaction at 37° C. was monitored at 340 nm using an HP8452 spectrophotometer.
Enzyme (0.2 U) was mixed with 50 mM Tris-SO4, pH 7.5, 1 mM MgCl2, 5 mM β-mercaptoethanol, 0.5 mg/mL bovine serum albumin, 2 mM phosphoenol pyruvate, 0.03 mg/mL pyruvate kinase, 10 nM of stem-loop DNA, and 2 mM adenosine triphosphate in a total volume of 50 μL. Three (3) μCi of [^32P]-γ-adenosine triphosphate was added to the reaction and typical incubation was for 60 minutes 37° C. EDTA (25 mM) was added to stop the reaction. 10 μL of the reaction was spotted on a poly(ethylenimine)-cellulose plate. The plate was developed using 0.9M LiCl and 7M urea as solvent system. The plate was allowed to dry and autoradiographed either using X-OMAT film or a phosphorimager. […]

For NC[C@H]1O[C@H](O[C@H]2[C@H](O)[C@@H](O[C@H]3O[C@H](CO)[C@@H](O)[C@H](N)[C@H]3O)[C@H](N)C[C@@H]2N)[C@H](O)[C@@H](OP(=O)(O)O)[C@@H]1O [phosphokanamycin, 3′-phosphokanamycin], the “killing of Leishmania cells (in words)” value (Leishmania chagasi) was “clearly effective in killing the cells”, the “effect on tumors (in words)” value ([1]; 50 μl of 1.3 mM into the tumor Mon/Wed/Fri for two weeks) was “tumor cells were killed; also recorded: Tumors regress in size and ultimately disappear” and the “remote lesions (metastasis) after treatment” value ([1]; metastasis had occurred before treatment) was “no remote lesions are detected”. For the same compound, the “longevity of treated mice” value ([1]; relative to untreated controls) was “significant longevity relative to the untreated controls”, the toxicity ([1]; treatments lasting as long as 8 weeks) was “no detectable toxicity” and the Ki (DNA-dependent ATPase A; Table 4, determined in the presence of effector) was 580 nM. For the same compound, the Ki (DNA-dependent ATPase A; kinetic analysis of ATP hydrolysis, competitive with respect to DNA) was roughly 200 nM, the “inhibition of DNA-dependent ATPase A activity (in words)” value (DNA-dependent ATPase A) was “inhibitor” and the “inhibition of DNA-dependent ATPase A activity (in words)” value (DNA-dependent ATPase A; listed as 3′-phosphokanamycin) was “potent competitive (with respect to DNA) inhibitor”. For the same compound, the “decrease in amount of drug required for a given level of inhibition / potency relative to the parent aminoglycoside” value (DNA-dependent ATPase A; phosphorylated derivative vs parent) was 1000 fold.
